In the test the target is T1, PfLPL1 (Plasmodium falciparum, UniProt Q8IK69).
T1 construct: gene PF3D7_1476700; full length 1-353, expressed from pETM-41 in E. coli BL21(DE3); Ni-NTA then amylose resin (implies His-MBP fusion)
T1 sequence (Q8IK69 1-353): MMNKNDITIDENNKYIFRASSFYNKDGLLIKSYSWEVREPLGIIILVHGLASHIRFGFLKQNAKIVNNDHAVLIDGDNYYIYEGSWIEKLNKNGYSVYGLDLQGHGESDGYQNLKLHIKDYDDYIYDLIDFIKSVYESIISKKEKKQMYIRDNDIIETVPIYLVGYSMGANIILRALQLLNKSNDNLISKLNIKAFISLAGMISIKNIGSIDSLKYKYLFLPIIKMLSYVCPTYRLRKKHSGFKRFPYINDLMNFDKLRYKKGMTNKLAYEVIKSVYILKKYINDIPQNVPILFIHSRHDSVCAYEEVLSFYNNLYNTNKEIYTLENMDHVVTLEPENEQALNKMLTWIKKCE
Nature of the test: coupled Amplex Red fluorescence assay (GPC phosphodiesterase, choline oxidase, HRP). Type of test: biochemical. To be noted: substrate 0-70 µM; Tris-HCl, CaCl2, pH 8.0; room temperature; acyl chain of LPC not stated; reaction mix lists 0.5 mM lecithin.

The record followed here is article PMC8359613, “An essential vesicular-trafficking phospholipase mediates neutral lipid synthesis and contributes to hemozoin formation in Plasmodium falciparum” (BMC Biology, 2021).

On to LPC, for which the Km amounted to 61.2 ± 5.9 µM.
